According to patent publication US11578102B2, “LAG3 binding peptides” (Leidos, Inc., priority 2020, dated 2023):
Residues, ends and D or L forms follow the SMILES beside them.

Biological target: T1, human LAG3/FGL1 interaction (Homo sapiens, UniProt P18627)
T1 construct: purchased BPS Bioscience
T1 sequence (P18627 23-450 limits assumed): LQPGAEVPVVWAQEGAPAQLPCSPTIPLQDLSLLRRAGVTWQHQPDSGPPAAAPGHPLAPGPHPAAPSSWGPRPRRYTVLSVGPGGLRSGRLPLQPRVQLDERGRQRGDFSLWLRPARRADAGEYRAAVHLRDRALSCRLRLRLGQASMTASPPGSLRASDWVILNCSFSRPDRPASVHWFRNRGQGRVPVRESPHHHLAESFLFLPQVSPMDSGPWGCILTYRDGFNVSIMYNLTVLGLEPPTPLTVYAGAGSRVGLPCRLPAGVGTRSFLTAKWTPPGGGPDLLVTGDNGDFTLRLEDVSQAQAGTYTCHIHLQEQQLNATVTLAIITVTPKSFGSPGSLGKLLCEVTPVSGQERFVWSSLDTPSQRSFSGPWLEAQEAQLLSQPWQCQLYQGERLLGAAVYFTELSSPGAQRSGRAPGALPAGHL
Test: Human LAG3/FGL1 TR-FRET Binding Assay (BPS Bioscience)
Settings: peptides tested at 100, 33, and 11 μM; 1 hr at RT; read-out: IC50 in LAG3:FLG1 TR-FRET Assay
Protocol: This example tested the ability of peptides to inhibit the interaction between human LAG3 and FGL1. The peptides were tested using a Human LAG3/FGL1 TR-FRET Binding Assay (BPS Bioscience) carried out according to the manufacturer's instructions.
Peptides 6, 41, 68, 69, 115, 146, 154, and 155 were tested at 100, 33, and 11 μM. Peptide LG56 ([…]; SEQ ID NO:14) served as a peptide positive control. Peptide 93 (SEQ ID NO:15) served as a negative or low activating peptide control. A neutralizing anti-human LAG3 antibody (BPS Bioscience Cat. #71219) was used as an antibody positive control.
Reaction mixes were incubated 1 hr at RT before development. After development, plate was read in a Tecan M1000 TR-FRET instrument.

| IC50 | Structure (SMILES) |
| --- | --- |
| > 100 µM | CC[C@H](C)[C@H](NC(=O)[C@H](C)NC(=O)CNC(=O)[C@H](C)NC(=O)[C@H](CC(N)=O)NC(=O)[C@@H]1CCCN1C(=O)[C@H](Cc1ccc(O)cc1)NC(=O)[C@H](CCC(N)=O)NC(=O)[C@H](CCCCN)NC(=O)[C@H](CCC(N)=O)NC(=O)[C@@H](NC(=O)[C@H](CCC(N)=O)NC(=O)[C@H](CCC(=O)O)NC(=O)[C@H](CCCCN)NC(=O)[C@@H](NC(=O)[C@@H]1CCCN1C(=O)[C@H](C)NC(=O)[C@@H]1CCCN1C(=O)[C@@H](NC(=O)[C@@H](N)CCCNC(=N)N)C(C)C)C(C)C)C(C)C)C(=O)O [Low Activity Peptide, reference compound] (H-RVPAPVKEQVQKQYPNAGAI-OH; N-terminus and C-terminus assumed) |
| 7.2 µM | CC[C@H](C)[C@H](NC(=O)[C@H](CC(=O)O)NC(=O)[C@H](CC(=O)O)NC(=O)[C@H](C)NC(=O)[C@H](Cc1ccc(O)cc1)NC(=O)[C@H](CC(C)C)NC(=O)[C@H](CCCNC(=N)N)NC(=O)[C@@H](NC(=O)[C@H](CCC(=O)O)NC(=O)[C@H](CCCCN)NC(=O)[C@H](CCC(=O)O)NC(=O)[C@H](CC(=O)O)NC(=O)[C@H](Cc1c[nH]c2ccccc12)NC(=O)[C@H](CC(=O)O)NC(=O)[C@H](CCSC)NC(=O)[C@H](CCCNC(=N)N)NC(=O)[C@H](Cc1ccccc1)NC(=O)[C@@H](N)C(C)C)C(C)C)C(=O)N[C@@H](CC(C)C)C(=O)N[C@@H](CC(C)C)C(=O)O [Peptide 146] (H-VFRMDWDEKEVRLYADDILL-OH; N-terminus and C-terminus assumed) |
| 7.2 µM | CSCC[C@H](NC(=O)[C@@H](NC(=O)[C@H](CCC(=O)O)NC(=O)[C@H](CC(C)C)NC(=O)[C@@H](NC(=O)[C@H](CCC(N)=O)NC(=O)[C@H](CCC(=O)O)NC(=O)[C@H](CCCNC(=N)N)NC(=O)[C@H](CC(N)=O)NC(=O)[C@H](Cc1c[nH]cn1)NC(=O)[C@@H](N)CCC(=O)O)C(C)C)C(C)C)C(=O)N[C@@H](Cc1ccc(O)cc1)C(=O)N[C@@H](CO)C(=O)N[C@@H](Cc1ccccc1)C(=O)N[C@@H](CCC(N)=O)C(=O)N[C@H](C(=O)N[C@@H](CC(N)=O)C(=O)N[C@@H](CC(=O)O)C(=O)N[C@@H](Cc1ccc(O)cc1)C(=O)N[C@@H](Cc1ccccc1)C(=O)O)C(C)C [Peptide 154] (H-EHNREQVLEVMYSFQVNDYF-OH; N-terminus and C-terminus assumed) |
